From patent publication US20080281104A1, “Membrane-Anchoring Fluorescent Probe” (THE UNIVERSITY OF TOKYO, priority 2005, published 2008)

Legend:
HeLa cells = assay: Fluorescence intensity change of loaded cells on extracellular pH change; type: cell-based; conditions: extracellular fluid pH from 7.4 to 6.7 to 6.4, loaded cells, fluorescence microscope (FIG. 5)
Protocol: As a control experiment, a fluorescein ester derivative (fluorescein diacetate), which can penetrate cell membranes and undergo hydrolysis by cytoplasmic esterase to distribute fluorescein intracellularly, was loaded on the cells, then the cells were treated in the same manner.

HeLa cell membranes = assay: Function as NO probe on cell membrane (NOC13 addition); type: cell-based; conditions: 7.5 μmol/L probe, PBS(+) pH 7.4, NOC13 100 μmol/L at 120 seconds and 1 mmol/L at 1,800 seconds, HeLa cells (FIG. 6)
Protocol: To 1 mL of an extracellular fluid (pH 7.4, PBS (+)) loaded with DAF-PIP-DPPE (7.5 μmol/L) was added NOC13 solution (500 μL) prepared before use.

[1] = Fluorescence time course of reaction with NO released from NOC13; conditions: 1.27 μmol/L in PBS(−), 37° C., NOC13 5, 50, 100, 500 μmol/L (FIG. 2)
Protocol: To a 1.27 μmol/L DAF-PIPA PBS(−) solution at 37° C. was added NOC13 as a sustained release-type NO releasing agent at concentrations of 5 μmol/L, 50 μmol/L, 100 μmol/L, and 500 μmol/L, respectively, and change in the reaction with NO over time was measured.

For CC(=O)Oc1ccc2c(c1)Oc1cc(OC(C)=O)ccc1C21OC(=O)c2ccccc21 [fluorescein diacetate], the “decrease in fluorescence intensity according to pH change of extracellular fluid” value (HeLa cells) was “no change in fluorescence intensity”.
With CCCCCCCCCCCCCCCC(=O)OC[C@H](COP(=O)(O)OCCNC(=O)C1CCN(C(=O)c2cc(N)c(N)cc2-c2c3ccc(=O)cc-3oc3cc(O)ccc23)CC1)OC(=O)CCCCCCCCCCCCCCC [DAF-PIP-DPPE] the “fluorescence intensity change on cell membranes after NOC13” value (HeLa cell membranes) was “Marked increase in the fluorescence intensity”.
For DAF-piperidinic Acid [DAF-PIPA], the “change in fluorescence intensity on reaction with NO” value [1] was “became larger in a NO concentration-dependent manner”.
